System: ciliated tissue taken from the trachea of a chick embryo
Assay: Cilia beat frequency (CBF) model
Assay type: cell-based
Excerpt: By “toxic” herein is meant that the active agent has an adverse effect on the cilia beat frequency of ciliated tissue taken from the trachea of a chick embryo according to the model that is well known in the art (“The Effect of Nasal Drug Formulations on Ciliary Beating in Vitro,” Romeijn, et al.; Int. J. Pharm., 135; 1996: 137-145; “Classification of Cilio-Inhibiting Effects of Nasal Drugs,” Merkus, et al., Laryngoscope, 111(4); April 2001: 595-602). By “ameliorating said toxicity” herein is meant that the adverse effect of the active agent on the cilia beat frequency is lessened as a result of the inclusion in the medicament of ascorbic acid for co-administration with said active agent. […]
The cilia beat frequency (CBF) model is a recognised technique to investigate the relative toxicity of substances applied in solution to a section of ciliated tissue taken from the trachea of a chick embryo (Romeijn, et al., 1996, Merkus, et al., 2001). […] The tissue is then transferred to a well containing 1.0 ml of test solution and the impact on CBF assessed. Further, the reversibility of any effects can be measured by washing the tissue in Locke-Ringer solution 15 minute post administration and evaluating the recovery of CBF.

CN1CCc2cccc3c2[C@H]1Cc1ccc(O)c(O)c1-3 [apomorphine]
reversibility of toxic effect on CBF after washing: irreversible

O=C1O[C@H]([C@@H](O)CO)C(O)=C1O [ascorbic acid]
effect of adding ascorbic acid on the apomorphine-induced arrest of cilia beat movement (1% wt. ascorbic acid added to 1% apomorphine in MLR solution, single administration, FIG. 1): ameliorated significantly

From patent US20110086875A1, “Powdered Medicament for Nasal Delivery of Ascorbic Acid for Reducing Apomorphine Induced Toxicity to Ciliated Tissue” (BRITANNIA PHARMACEUTICALS LIMITED, priority 2007, published 2011)
